Results from US10820591B2, “Substituted sulfonyl amides for controlling animal pests” (Bayer Aktiengesellschaft, priority 2016, dated 2020).

Tested on: Meloidogyne incognita
Experiment: Meloidogyne incognita test (sand, lettuce, gall formation)
Type: in vivo
Details: Meloidogyne incognita, 336 h, 20 ppm, after 14 days; read-out: nematicidal efficacy (formation of galls)
Summary of the method: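 Vessels held sand, diluted compound solution, M. incognita egg/larvae suspension and lettuce seeds, and the plants grew for 14 days. Efficacy in % came from root gall formation: 100% means no galls, 0% means galls equal to the untreated control.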

| Structure (SMILES) | pest or weed control at 20 ppm [%] |
| --- | --- |
| COc1ccc(F)c(S(=O)(=O)NC(=O)c2cn(-c3cc(Cl)cc(Cl)c3)c(C)n2)c1 [I-367] | 100 |
| COc1ccc(Br)c(S(=O)(=O)NC(=O)c2cn(-c3cc(Cl)cc(Cl)c3)c(C)n2)c1 [I-368] | 90 |
| COc1ccc(F)c(S(=O)(=O)NC(=O)c2cn(-c3cc(F)cc(Cl)c3)c(C)n2)c1 [I-369] | 100 |
| COc1ccc(Br)c(S(=O)(=O)NC(=O)c2cn(-c3cc(F)cc(Cl)c3)c(C)n2)c1 [I-370] | 70 |
| COc1ccc(F)c(S(=O)(=O)NC(=O)c2cn(-c3cc(F)cc(F)c3)c(C)n2)c1 [I-371] | 90 |
| CC(=O)c1ccc(Cl)c(S(=O)(=O)NC(=O)c2cn(-c3cc(Cl)cc(Cl)c3)c(C)n2)c1 [I-372] | 100 |
| CSc1cccc(Cl)c1S(=O)(=O)NC(=O)c1cn(-c2cc(Cl)cc(Cl)c2)c(C)n1 [I-374] | 100 |
| CCSc1cccc(Cl)c1S(=O)(=O)NC(=O)c1cn(-c2cc(Cl)cc(Cl)c2)c(C)n1 [I-375] | 100 |
| Cc1nc(C(=O)NS(=O)(=O)c2c(Cl)cccc2SC(C)C)cn1-c1cc(Cl)cc(Cl)c1 [I-376] | 90 |
| Cc1nc(C(=O)NS(=O)(=O)c2c(F)cccc2NC(C)C)cn1-c1cc(Cl)cc(Cl)c1 [I-377] | 90 |
| Cc1nc(C(=O)NS(=O)(=O)c2c(F)cccc2Cl)cn1-c1cc(Cl)cc(Cl)c1 [I-378] | 100 |
| Cc1nc(C(=O)NS(=O)(=O)c2c(F)cccc2NC2CC2)cn1-c1cc(Cl)cc(Cl)c1 [I-379] | 100 |
| Cc1nc(C(=O)NS(=O)(=O)c2c(F)cccc2NC2CC2)cn1-c1cc(F)cc(Cl)c1 [I-380] | 100 |
| Cc1nc(C(=O)NS(=O)(=O)c2c(F)cccc2NC(C)C)cn1-c1cc(F)cc(Cl)c1 [I-381] | 100 |
| CSc1cccc(Cl)c1S(=O)(=O)NC(=O)c1cn(-c2cc(F)cc(Cl)c2)c(C)n1 [I-382] | 100 |
| CCSc1cccc(Cl)c1S(=O)(=O)NC(=O)c1cn(-c2cc(F)cc(Cl)c2)c(C)n1 [I-383] | 100 |
| Cc1nc(C(=O)NS(=O)(=O)c2c(Cl)cccc2SC(C)C)cn1-c1cc(F)cc(Cl)c1 [I-384] | 100 |
| CSc1cccc(Cl)c1S(=O)(=O)NC(=O)c1cn(-c2cc(F)cc(F)c2)c(C)n1 [I-386] | 100 |
| Cc1nc(C(=O)NS(=O)(=O)c2c(Cl)cccc2SC(C)C)cn1-c1cc(F)cc(F)c1 [I-388] | 100 |
| Cc1nc(C(=O)NS(=O)(=O)c2c(F)cccc2NC2CC2)cn1-c1cc(F)cc(F)c1 [I-389] | 100 |
| CSc1cccc(Cl)c1S(=O)(=O)NC(=O)c1cn(-c2cc(Cl)cc(Cl)c2)cn1 [I-390] | 100 |
| O=C(NS(=O)(=O)c1c(F)cccc1NC1CC1)c1cn(-c2cc(Cl)cc(Cl)c2)cn1 [I-393] | 100 |
| CCc1nc(C(=O)NS(=O)(=O)c2cc(OC)ccc2Cl)cn1-c1cc(F)cc(F)c1 [I-394] | 100 |
| COc1ccc(Cl)c(S(=O)(=O)NC(=O)c2cn(-c3cc(F)cc(F)c3)c(C(C)C)n2)c1 [I-395] | 90 |
| Cc1nc(C(=O)NS(=O)(=O)c2c(F)cccc2Cl)cn1-c1cc(F)cc(Cl)c1 [I-396] | 90 |
| Cc1nc(C(=O)NS(=O)(=O)c2c(F)cccc2Cl)cn1-c1cc(F)cc(F)c1 [I-397] | 70 |
| CC(C)Sc1cccc(Cl)c1S(=O)(=O)NC(=O)c1cn(-c2cc(Cl)cc(Cl)c2)cn1 [I-398] | 90 |
| Cc1nc(C(=O)NS(=O)(=O)c2c(F)cccc2Cl)cn1-c1cc(Cl)cc(C(F)(F)F)c1 [I-399] | 90 |

| Structure (SMILES) | pest or weed control at 20 ppm [%] |
| --- | --- |
| Cc1nc(C(=O)NS(=O)(=O)c2c(F)cccc2Cl)cn1-c1cc(F)cc(C(F)(F)F)c1 [I-400] | 90 |
| CCc1nc(C(=O)NS(=O)(=O)c2cc(OC)ccc2Cl)cn1-c1cc(Cl)cc(Cl)c1 [I-402] | 90 |
| COc1ccc(Cl)c(S(=O)(=O)NC(=O)c2cn(-c3cc(Cl)cc(Cl)c3)c(C(C)C)n2)c1 [I-403] | 90 |
| CCc1nc(C(=O)NS(=O)(=O)c2cc(OC)ccc2Cl)cn1-c1cc(F)cc(C(F)(F)F)c1 [I-404] | 90 |
| COc1ccc(Cl)c(S(=O)(=O)NC(=O)c2cn(-c3cc(F)cc(C(F)(F)F)c3)c(C(C)C)n2)c1 [I-405] | 100 |
| CCc1nc(C(=O)NS(=O)(=O)c2cc(OC)ccc2Cl)cn1-c1cc(F)cc(Cl)c1 [I-406] | 100 |
| CCc1nc(C(=O)NS(=O)(=O)c2cc(OC)ccc2Cl)cn1-c1cc(Cl)cc(C(F)(F)F)c1 [I-407] | 100 |
| COc1ccc(Cl)c(S(=O)(=O)NC(=O)c2cn(-c3cc(F)cc(Cl)c3)c(C(C)C)n2)c1 [I-408] | 100 |
| Cc1nc(C(=O)NS(=O)(=O)C(C)C)cn1-c1cc(Cl)cc(Cl)c1 [I-409] | 100 |
| COc1ccc(S(=O)(=O)NC(=O)c2cn(-c3cc(F)cc(F)c3)c(C)n2)cc1 [I-410] | 100 |
| COc1ccc(S(=O)(=O)NC(=O)c2cn(-c3cc(Cl)cc(Cl)c3)c(C)n2)cc1 [I-411] | 100 |
| COc1ccc(Cl)c(S(=O)(=O)NC(=O)c2nc(C)n(-c3cc(Cl)cc(Cl)c3)c2F)c1 [I-413] | 100 |
| O=C(NS(=O)(=O)c1ccccc1)c1ncn(-c2ccc(Cl)cc2)c1Cl [I-414] | 100 |
| COc1ccc(S(=O)(=O)NC(=O)c2ncn(-c3ccc(Cl)cc3)c2Cl)cc1 [I-415] | 90 |
| O=C(NS(=O)(=O)c1ccccc1Cl)c1ncn(-c2ccc(Cl)cc2)c1Cl [I-416] | 100 |
| O=C(NS(=O)(=O)c1cccc(Cl)c1)c1ncn(-c2ccc(Cl)cc2)c1Cl [I-417] | 100 |
| O=C(NS(=O)(=O)c1ccc(Cl)cc1)c1ncn(-c2ccc(Cl)cc2)c1Cl [I-418] | 100 |
| COc1cccc(S(=O)(=O)NC(=O)c2ncn(-c3ccc(Cl)cc3)c2Cl)c1 [I-419] | 100 |
| COc1ccccc1S(=O)(=O)NC(=O)c1ncn(-c2ccc(Cl)cc2)c1Cl [I-420] | 100 |
| O=C(NS(=O)(=O)c1ccccc1)c1ncn(-c2ccc(C(F)(F)F)cc2)c1Cl [I-421] | 100 |
| O=C(NS(=O)(=O)c1cccc(Cl)c1)c1ncn(-c2ccc(C(F)(F)F)cc2)c1Cl [I-422] | 100 |
| O=C(NS(=O)(=O)c1ccccc1Cl)c1ncn(-c2ccc(C(F)(F)F)cc2)c1Cl [I-423] | 100 |
| COc1ccccc1S(=O)(=O)NC(=O)c1ncn(-c2ccc(C(F)(F)F)cc2)c1Cl [I-424] | 100 |
| COc1cccc(S(=O)(=O)NC(=O)c2ncn(-c3ccc(C(F)(F)F)cc3)c2Cl)c1 [I-425] | 100 |
| COc1ccc(S(=O)(=O)NC(=O)c2ncn(-c3ccc(C(F)(F)F)cc3)c2Cl)cc1 [I-426] | 90 |
| O=C(NS(=O)(=O)c1ccc(Cl)cc1)c1ncn(-c2ccccc2C(F)(F)F)c1Cl [I-427] | 100 |
| O=C(NS(=O)(=O)c1cccc(Cl)c1)c1ncn(-c2ccccc2C(F)(F)F)c1Cl [I-428] | 90 |
